Reference: US9642889B2, “Macrocyclic inhibitors of Flaviviridae viruses” (Selcia Limited, priority 2012, dated 2017)

How the values were obtained:
cyclophilin A = cyclophilin A (Homo sapiens, UniProt P62937); experiment: Cyclophilin A TR-FRET competitive binding assay; conditions: competition with CsA-Cy5 for His-tagged CypA, two-hour incubation
Description: Cyclophilin A TR-FRET Competitive Binding Assay
Inhibitor potency was measured using a competitive binding assay with a time-resolved fluorescence resonance energy transfer (TR-FRET) readout. […] An IC50 value was calculated using a four-parameter logistic fit.

[1] = test system: Huh-7 HCV replicon cells (1b replicon); experiment: anti-HCV activity in Huh-7 cell line harboring a HCV replicon (luciferase readout); format: cell-based; conditions: Hepatitis C virus; for EC50: Huh-7, 72 h, inhibition of viral replication, Huh-7 HCV replicon cells, 3 days, read-out: EC50; for inhibition at 1 µM: Huh-7, read-out: Replicon 1b % inhibition at 1 μM, 1b replicon, 1 μM compound

cyclophilin A, sequence (P62937 whole entry, species assumed): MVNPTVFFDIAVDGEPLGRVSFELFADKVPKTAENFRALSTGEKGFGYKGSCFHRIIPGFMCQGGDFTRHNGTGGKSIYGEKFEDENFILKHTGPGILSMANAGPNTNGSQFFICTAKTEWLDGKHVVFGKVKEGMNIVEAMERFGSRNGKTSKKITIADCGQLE

SMILES	IC50 (cyclophilin A)	EC50 [1]	inhibition at 1 µM [1]
CCC[C@@H]1C/C=C/c2cc3cc(ccc3cn2)[C@@H](C)NC(=O)[C@@H]2CCCN(N2)C(=O)[C@H](C)NC(=O)[C@H](C(C)C)OC1=O [Compound 4]	< 0.1 µM	< 1 µM	100%
CC1/C=C/c2cc3cc(ccc3cn2)[C@@H](C)NC(=O)[C@@H]2CCCN(N2)C(=O)[C@H](C)NC(=O)[C@H](C(C)C)OC1=O (stereo partly drawn) [Compound 5]	< 0.1 µM	< 1 µM	93%
CC(C)[C@@H]1OC(=O)CCc2ccc(cc2)-c2cccc(c2)[C@@H](C)NC(=O)[C@@H]2CCCN(N2)C(=O)[C@H](C)NC1=O [Compound 6]	< 0.1 µM	< 1 µM	94%
CC(C)[C@@H]1OC(=O)[C@H](C)[C@H](O)CC/C=C/c2cccc(c2)[C@@H](C)NC(=O)[C@@H]2CCCN(N2)C(=O)[C@H](C)NC1=O [Compound 7, (E)-(2R,5S,11S,14S,17R,18R)-18-Hydroxy-14-isopropyl-2,11,17-trimethyl-15-oxa-3,9,12,28-tetraaza-tricyclo[21.3.1.1*5,9*]octacosa-1(26),21,23(27),24-tetraene 4,10,13,16-tetraone]	< 0.1 µM	< 1 µM	94%
CCC[C@@H]1CCCc2cc3cc(ccc3cn2)[C@@H](C)NC(=O)[C@@H]2CCCN(N2)C(=O)[C@H](C)NC(=O)[C@H](C(C)C)OC1=O [Compound 9]	< 0.1 µM	< 1 µM	100%
CC(C)[C@@H]1OC(=O)[C@H](C)[C@H](O)CCCCc2cccc(c2)[C@@H](C)NC(=O)[C@@H]2CCCN(N2)C(=O)[C@H](C)NC1=O [Compound 10, (2R,5S,11S,14S,17R,18R)-18-Hydroxy-14-isopropyl-2,11,17-trimethyl-15-oxa-3,9,12,28-tetraaza-tricyclo[21.3.1.1*5,9*]octacosa-1(26),23(27),24-triene-4,10,13,16-tetraone]	< 0.1 µM	< 1 µM	92%
CC1/C=C/c2cc3cc(ccc3cn2)[C@@H](C)NC(=O)[C@@H]2CCCN(N2)C(=O)[C@H](C)NC(=O)[C@H](C(C)C)OC(=O)C1C (stereo partly drawn) [Compound 11]	< 0.1 µM	< 1 µM	96%
CC(C)[C@@H]1OC(=O)C(C)(C)C/C=C/c2cc3cc(ccc3cn2)[C@@H](C)NC(=O)[C@@H]2CCCN(N2)C(=O)[C@H](C)NC1=O [Compound 12]	< 0.1 µM	< 1 µM	100%
CC(C)[C@@H]1NCCC/C=C/c2cc3cc(ccc3cn2)[C@@H](C)OC(=O)[C@@H]2CCCN(N2)C(=O)[C@H](C)NC1=O [Compound 20]	0.101 to 1 µM	< 1 µM	88%
CC(C)[C@@H]1NS(=O)(=O)C/C=C/c2cc3cc(ccc3cn2)[C@@H](C)OC(=O)[C@@H]2CCCN(N2)C(=O)[C@H](C)NC1=O [Compound 21]	0.101 to 1 µM	< 1 µM	71%
CC(C)[C@@H]1OCCC/C=C/c2cc3cc(ccc3cn2)[C@@H](C)OC(=O)[C@@H]2CCCN(N2)C(=O)[C@H](C)NC1=O [Compound 23]	< 0.1 µM	< 1 µM	97%
CC(C)[C@@H]1OCCCCCc2cc3cc(ccc3cn2)[C@@H](C)OC(=O)[C@@H]2CCCN(N2)C(=O)[C@H](C)NC1=O [Compound 24]	< 0.1 µM	< 1 µM	83%
CC(C)[C@@H]1NCC(C)(C)/C=C/c2ccc3ccc(nc3c2)[C@@H](C)OC(=O)[C@@H]2CCCN(N2)C(=O)[C@H](C)NC1=O [Compound 25]	< 0.1 µM	< 1 µM	98%
CC(C)[C@H]1C(=O)N[C@@H](C)C(=O)N2CCC[C@H](N2)C(=O)O[C@H](C)c2ccc3ccc(cc3n2)/C=C/C(C)(C)CN1C [Compound 26]	0.101 to 1 µM	< 1 µM	68%
CC(C)[C@@H]1OC(=O)[C@@](C)(CO)/C=C/c2ccc3ccc(nc3c2)[C@@H](C)NC(=O)[C@@H]2CCCN(N2)C(=O)[C@H](C)NC1=O [Compound 29]	< 0.1 µM	< 1 µM	99%
CC(C)[C@@H]1OC(=O)[C@@](C)(CO)CCc2ccc3ccc(nc3c2)[C@@H](C)NC(=O)[C@@H]2CCCN(N2)C(=O)[C@H](C)NC1=O [Compound 30]	< 0.1 µM	< 1 µM	84%
CC(C)[C@@H]1N[C@H](C(F)(F)F)C(C)(C)/C=C/c2ccc3ccc(nc3c2)[C@@H](C)OC(=O)[C@@H]2CCCN(N2)C(=O)[C@H](C)NC1=O [Compound 31]	< 0.1 µM	< 1 µM	88%
CC(C)[C@@H]1N[C@@H](C(F)(F)F)C(C)(C)/C=C/c2ccc3ccc(nc3c2)[C@@H](C)OC(=O)[C@@H]2CCCN(N2)C(=O)[C@H](C)NC1=O [Compound 32]	0.101 to 1 µM	1.1 to 10 µM	56%
CC(C)[C@@H]1OC(=O)C(C)(C)/C=C/c2ccc3ccc(nc3c2)[C@@H](C)N(C)C(=O)[C@@H]2CCCN(N2)C(=O)[C@H](CO)NC1=O [Compound 41]	< 0.1 µM	< 1 µM	98%

SMILES	IC50 (cyclophilin A)	EC50 [1]	inhibition at 1 µM [1]
CC(C)[C@@H]1OC(=O)[C@]2(/C=C/c3ccc4ccc(nc4c3)[C@@H](C)N(C)C(=O)[C@@H]3CCCN(N3)C(=O)[C@H](C)NC1=O)CC[C@H](O)CC2 [Compound 42]	< 0.1 µM	< 1 µM	96%
CC(C)[C@@H]1OC(=O)C(C)(C)/C=C/c2ccc3ccc(nc3c2)[C@@H](C)N(C)C(=O)[C@@H]2CCCN(N2)C(=O)[C@H](C)NC1=O [Compound 47]	< 0.1 µM	< 1 µM	100%
C[C@@H]1NC(=O)[C@H](C2CCC2)OC(=O)C(C)(C)/C=C/c2ccc3ccc(nc3c2)[C@@H](C)NC(=O)[C@@H]2CCCN(N2)C1=O [Compound 52]	< 0.1 µM	< 1 µM	100%
C[C@@H]1NC(=O)[C@H](C2CC2)OC(=O)C2(/C=C/c3ccc4ccc(nc4c3)[C@@H](C)NC(=O)[C@@H]3CCCN(N3)C1=O)COCOC2 [Compound 53]	< 0.1 µM	< 1 µM	99%
CO[C@@H](C)[C@@H]1OC(=O)C(C)(C)/C=C/c2ccc3ccc(nc3c2)[C@@H](C)NC(=O)[C@@H]2CCCN(N2)C(=O)[C@H](C)NC1=O [Compound 54]	0.101 to 1 µM	< 1 µM	77%
CC(C)[C@@H]1OC(=O)[C@@](C)(COC(F)F)/C=C/c2ccc3ccc(nc3c2)[C@@H](C)NC(=O)[C@@H]2CCCN(N2)C(=O)[C@H](C)NC1=O [Compound 55]	< 0.1 µM	< 1 µM	100%
CC(C)[C@@H]1OC(=O)[C@@](C)(COC(F)(F)F)/C=C/c2ccc3ccc(nc3c2)[C@@H](C)NC(=O)[C@@H]2CCCN(N2)C(=O)[C@H](C)NC1=O [Compound 56]	< 0.1 µM	< 1 µM	99%
CO[C@H](C)[C@@H]1OC(=O)C(C)(C)/C=C/c2ccc3ccc(nc3c2)[C@@H](C)NC(=O)[C@@H]2CCCN(N2)C(=O)[C@H](C)NC1=O [Compound 60]	< 0.1 µM	< 1 µM	96%
C[C@@H]1NC(=O)[C@H](C)OC(=O)C(C)(C)/C=C/c2ccc3ccc(nc3c2)[C@@H](C)NC(=O)[C@@H]2CCCN(N2)C1=O [Compound 61]	0.101 to 1 µM	1.1 to 10 µM	46%
C[C@@H]1NC(=O)[C@H](CC(F)F)OC(=O)C(C)(C)/C=C/c2ccc3ccc(nc3c2)[C@@H](C)NC(=O)[C@@H]2CCCN(N2)C1=O [Compound 62]	< 0.1 µM	< 1 µM	84%
C[C@@H]1NC(=O)[C@H](C2CCCC2)OC(=O)C2(/C=C/c3ccc4ccc(nc4c3)[C@@H](C)NC(=O)[C@@H]3CCCN(N3)C1=O)COCOC2 [Compound 63]	< 0.1 µM	< 1 µM	100%
CC[C@H](C)[C@@H]1OC(=O)C2(/C=C/c3ccc4ccc(nc4c3)[C@@H](C)NC(=O)[C@@H]3CCCN(N3)C(=O)[C@H](C)NC1=O)COCOC2 [Compound 65]	< 0.1 µM	< 1 µM	99%
C[C@@H]1NC(=O)[C@H](C2CC2)OC(=O)C2(/C=C/c3ccc4ccc(nc4c3)[C@@H](C)NC(=O)[C@@H]3CCCN(N3)C1=O)CCC(O)CC2 (stereo partly drawn) [Compound 66]	< 0.1 µM	< 1 µM	97%
C[C@@H]1NC(=O)[C@H](C2CCOCC2)OC(=O)C(C)(C)/C=C/c2ccc3ccc(nc3c2)[C@@H](C)NC(=O)[C@@H]2CCCN(N2)C1=O [Compound 67]	0.101 to 1 µM	< 1 µM	67%
CC(F)[C@@H]1OC(=O)C(C)(C)/C=C/c2ccc3ccc(nc3c2)[C@@H](C)NC(=O)[C@@H]2CCCN(N2)C(=O)[C@H](C)NC1=O (stereo partly drawn) [Compound 68]	< 0.1 µM	< 1 µM	93%
C[C@@H]1NC(=O)[C@H](C(C)(C)C)OC(=O)C(C)(C)/C=C/c2ccc3ccc(nc3c2)[C@@H](C)NC(=O)[C@@H]2CCCN(N2)C1=O [Compound 70]	1 to 10 µM	< 1 µM	57%
CC([C@@H]1OC(=O)C(C)(C)/C=C/c2ccc3ccc(nc3c2)[C@@H](C)NC(=O)[C@@H]2CCCN(N2)C(=O)[C@H](C)NC1=O)C(F)(F)F (stereo partly drawn) [Compound 71]	< 0.1 µM	< 1 µM	96%
C[C@@H]1NC(=O)[C@H](C(C)(C)F)OC(=O)C2(/C=C/c3ccc4ccc(nc4c3)[C@@H](C)NC(=O)[C@@H]3CCCN(N3)C1=O)COCOC2 [Compound 72]	1 to 10 µM	1.1 to 10 µM	-6%
CC(C)[C@@H]1OC(=O)C2(/C=C/c3ccc4ccc(nc4c3)[C@@H](C)NC(=O)[C@@H]3CCCN(N3)C(=O)[C@H](C)NC1=O)CCOC2 (stereo partly drawn) [Compound 73]	< 0.1 µM	< 1 µM	97%
